“Also recorded” adds a separate entry of the source.
Test system: adult subjects with Major Depressive Disorder
Test: Phase 3 open-label 1-year study: safety and tolerability (TEAEs, SAEs, C-SSRS)
Type: in vivo, human
Details: for Subjects reporting TEAEs leading to dose reduction: Low dose cohort; for Subjects with Treatment Cycle Period TEAE / Subjects with Treatment Period TEAE: Study Period 1 only
Procedure: Primary Objective: To determine the safety and tolerability of initial treatment and re-treatment(s) with Compound (1) in adults with Major Depressive Disorder (MDD) currently experiencing a major depressive episode (MDE) over a 1-year period.
Study Population: Subjects were 18-75 years old, diagnosed with major depressive disorder (MDD) with a MADRS total score of ≥28 and a HAM-D total score of ≥20 at Screening and Day 1 (prior to dosing).
Treatment Groups: The 30 mg and 50 mg dose groups were separated by time of enrollment. The study is comprised of two cohorts: one with Compound (1) 30 mg as a starting dose (30 mg Cohort: n=725), an initial cohort with Compound (1) 50 mg as a starting dose (50 mg Cohort: n=199). A patient receiving Compound (1) 30 mg could be dose reduced to 20 mg and patients receiving Compound (1) 50 mg could be dose reduced to 40 mg (based on tolerability). In all cohorts, Compound (1) is self-administered by patients as an oral therapy once nightly with food for 14 days.
The study has a Screening Period of up to 28 days, a 14-day Treatment Period, and up to 1 year of Follow-up. FIG. 1 is an overview of the study.
Antidepressants were permitted provided subjects were on a stable dose for at least 60 days prior to Day 1 and agreed to continue on the stable dose through the follow-up period (Day 42). Initiation of new antidepressants or any other medications that may potentially have an impact on efficacy or safety endpoints were not allowed between screening and completion of the Day 42 assessments.
Eligible subjects were given Compound (1)—to be taken at home in the evening with meal.
Subjects who continued in the Observation Period were monitored remotely via PHQ-9 assessment every two weeks. If PHQ-9 score was >=10 at any assessment, PHQ-9 assessment was switch to every week until the score came down below 10 or the subject was dosed with Compound (1) in a subsequent cycle, whichever was earlier. A subject was to come back to the site for HAM-D assessment within a week of PHQ-9 score >=10; if the HAM-D total score >=20 and at least 56 days had elapsed since the last dose of Compound (1), another dosing cycle of Compound (1) were to start. If any of these criteria were not met, the subject couldn't be treated with Compound (1) at that time. Without the trigger of PHQ-9>=10 the subject was to have a clinic visit every 8 weeks. A subject could have at most 5 cycles of treatment within a year. FIG. 2 is a depiction of the eligibility criteria of the study.
Dose reduction from 30 mg to 20 mg or 50 mg to 40 mg was allowed in any treatment cycle if the safety and/or tolerability of the subject so warrants. […] Subjects who dose reduced from 30 mg to 20 mg still started with 30 mg in the next treatment cycle.
The cohorts pertaining to the different doses that the subjects received were defined as following: • 50 mg cohort: This cohort includes subjects who have initiated treatment with 50 mg and received re-treatment with 50 mg only. • 30 mg cohort: This cohort includes subjects who have initiated treatment with 30 mg regardless of the dose they have received in re-treatments. • Low dose cohort: This cohort includes subjects who have initiated treatment with 30 mg and received re-treatment with 30 mg only. • Dose switch cohort: This cohort includes subjects who have received initial treatment with 30 mg and at least one subsequent re-treatment with 50 mg. • Study Period X: starts on the date of the first dose of Compound (1) in cycle X and goes up to one day prior to the first dose of the next cycle. […]

[1] = Low Dose Cohort, ATD use at period-specific baseline No, Study Period 3
[2] = Low Dose Cohort, ATD use at period-specific baseline No, Study Period 4
[3] = Low Dose Cohort, ATD use at period-specific baseline No, Study Period 5
[4] = Low Dose Cohort, ATD use at period-specific baseline Yes, Study Period 1
[5] = Low Dose Cohort, ATD use at period-specific baseline Yes, Study Period 2
[6] = Low Dose Cohort, ATD use at period-specific baseline Yes, Study Period 3
[7] = Low Dose Cohort, ATD use at period-specific baseline Yes, Study Period 4
[8] = Low Dose Cohort, ATD use at period-specific baseline Yes, Study Period 5
[9] = overall study population (Example 5)

## C[C@@]1(O)CC[C@H]2[C@H](CC[C@@H]3[C@@H]2CC[C@]2(C)[C@@H](C(=O)Cn4cc(C#N)cn4)CC[C@@H]32)C1 [Compound (1), 1-(2-((3R,5R,8R,9R,10S,13S,14S,17S)-3-hydroxy-3,13-dimethylhexadecahydro-1H-cyclopenta[a]phenanthren-17-yl)-2-oxoethyl)-1H-pyrazole-4-carbonitrile]
Low Dose Cohort, ATD use at period-specific baseline No, Study Period 2
  Subjects with at least one Treatment period AE: 51 (43.2%)
[1]
  Subjects with a TEAE leading to study drug discontinuation: 0%
  Subjects with a Treatment cycle period AE leading to study withdrawal: 1 (2.4%)
  Subjects with at least one TEAE: 21 (51.2%)
  Subjects with at least one Treatment cycle period TEAE: 14 (34.1%)
  Subjects with at least one Treatment cycle period serious TEAE: 1 (2.4%)
  Subjects with at least one Treatment cycle period severe TEAE: 2 (4.9%)
  Subjects with at least one Treatment period AE: 12 (29.3%)
[2]
  Subjects with a TEAE leading to study drug discontinuation: 0%
  Subjects with a Treatment cycle period AE leading to study withdrawal: 0%
  Subjects with at least one TEAE: 8 (33.3%)
  Subjects with at least one Treatment cycle period TEAE: 6 (25.0%)
  Subjects with at least one Treatment cycle period serious TEAE: 0%
  Subjects with at least one Treatment cycle period severe TEAE: 0%
  Subjects with at least one Treatment period AE: 5 (20.8%)
[3]
  Subjects with a TEAE leading to study drug discontinuation: 0%
  Subjects with a Treatment cycle period AE leading to study withdrawal: 0%
  Subjects with at least one TEAE: 3 (33.3%)
  Subjects with at least one Treatment cycle period TEAE: 2 (22.2%)
  Subjects with at least one Treatment cycle period serious TEAE: 0%
  Subjects with at least one Treatment cycle period severe TEAE: 0%
  Subjects with at least one Treatment period AE: 2 (22.2%)
[4]
  Subjects with a TEAE leading to study drug discontinuation: (1.5%)
  Subjects with a Treatment cycle period AE leading to study withdrawal: (1.9%)
  Subjects with at least one TEAE: (57.9%)
  Subjects with at least one Treatment cycle period TEAE: (50.4%)
  Subjects with at least one Treatment cycle period serious TEAE: (0.4%)
  Subjects with at least one Treatment cycle period severe TEAE: (2.3%)
  Subjects with at least one Treatment period AE: (47.4%)
[5]
  Subjects with a TEAE leading to study drug discontinuation: 1 (1.1%)
  Subjects with a Treatment cycle period AE leading to study withdrawal: 1 (1.1%)
  Subjects with at least one TEAE: 48 (54.5%)
  Subjects with at least one Treatment cycle period TEAE: 36 (40.9%)
  Subjects with at least one Treatment cycle period serious TEAE: 1 (1.1%)
  Subjects with at least one Treatment cycle period severe TEAE: 2 (2.3%)
  Subjects with at least one Treatment period AE: 29 (33.0%)
[6]
  Subjects with a TEAE leading to study drug discontinuation: 0%
  Subjects with a Treatment cycle period AE leading to study withdrawal: 0%
  Subjects with at least one TEAE: 19 (42.2%)
  Subjects with at least one Treatment cycle period TEAE: 14 (31.1%)
  Subjects with at least one Treatment cycle period serious TEAE: 0%
  Subjects with at least one Treatment cycle period severe TEAE: 0%
  Subjects with at least one Treatment period AE: 12 (26.7%)
[7]
  Subjects with a TEAE leading to study drug discontinuation: 0%
  Subjects with a Treatment cycle period AE leading to study withdrawal: 0%
  Subjects with at least one TEAE: 7 (36.8%)
  Subjects with at least one Treatment cycle period TEAE: 3 (15.8%)
  Subjects with at least one Treatment cycle period serious TEAE: 0%
  Subjects with at least one Treatment cycle period severe TEAE: 0%
  Subjects with at least one Treatment period AE: 3 (15.8%)
[8]
  Subjects with a TEAE leading to study drug discontinuation: 0%
  Subjects with a Treatment cycle period AE leading to study withdrawal: 0%
  Subjects with at least one TEAE: 6 (54.5%)
  Subjects with at least one Treatment cycle period TEAE: 4 (36.4%)
  Subjects with at least one Treatment cycle period serious TEAE: 0%
  Subjects with at least one Treatment cycle period severe TEAE: 0%
  Subjects with at least one Treatment period AE: 4 (36.4%)
Low Dose cohort, as printed in b423 (451/677)
  Proportion of subjects reporting TEAEs: 66.6%
Low dose cohort (30 mg only), treatment cycle 1
  SAEs considered probably or possibly related to the study drug: none
Cycle 1
  Subjects reporting TEAEs leading to dose reduction: 3.4%
Cycle 2
  Subjects reporting TEAEs leading to dose reduction: 4.4%
Cycle 3
  Subjects reporting TEAEs leading to dose reduction: 2.3%
Cycle 4 (0/43)
  Subjects reporting TEAEs leading to dose reduction: 0%
Cycle 5
  Subjects reporting TEAEs leading to dose reduction: 10%
Overall (32/645)
  Subjects reporting TEAEs leading to dose reduction: 5.0%
Overall (N = 924)
  Subjects with at least one TEAE: 618 (66.9%)
  Subjects with at least one TEAE leading to study drug discontinuation: 32 (3.5%)
  Subjects with at least one TEAE leading to study withdrawal: 46 (5.0%)
  Subjects with at least one serious TEAE: 27 (2.9%)
  Subjects with at least one severe TEAE: 60 (6.5%)
  Subjects with Treatment Cycle Period TEAE: 485 (52.5%)
  Subjects with Treatment Period TEAE: 456 (49.4%)
30 mg Cohort (N = 725)
  Subjects with Treatment Cycle Period TEAE: 368 (50.8%)
  Subjects with Treatment Period TEAE: 348 (48.0%)
50 mg Cohort (N = 199)
  Subjects with Treatment Cycle Period TEAE: 117 (58.8%)
  Subjects with Treatment Period TEAE: 108 (54.3%)
Dose Switch Cohort (N = 80)
  Subjects with Treatment Cycle Period TEAE: 31 (38.8%)
  Subjects with Treatment Period TEAE: 28 (35.0%)
Low Dose Cohort (N = 645)
  Subjects with Treatment Cycle Period TEAE: 337 (52.2%)
  Subjects with Treatment Period TEAE: 320 (49.6%)
All dose cohorts
  Severity of the majority of TEAEs: mild to moderate; also recorded: mild or moderate
Any study period or dose cohort
  Suicidal ideation or suicidal behavior compared to baseline (C-SSRS): no signal for increased suicidal ideation or suicidal behavior
First course of Compound (1) 30 mg
  Tolerability: generally well-tolerated
In vivo
  Most common AEs that led to dose reduction: Somnolence, Dizziness, Sedation and Headache
[9]
  TEAE diarrhea: 6.3%
  TEAE dizziness: 9.1%
  TEAE dry mouth: 5.5%
  TEAE headache: 13.9%
  TEAE insomnia: 5.4%
  TEAE sedation: 8.7%
  TEAE somnolence: 12.8%
  TEAE upper respiratory infection: 6.3%
Subjects receiving Compound (1) 50 mg
  Overall safety observations with 50 mg versus safety findings with 30 mg: comparable
Treatment cycle 1, 50 mg cohort (5/199)
  Subjects reporting SAEs: 2.5%
Treatment cycle 1, Low Dose cohort (6/645)
  Subjects reporting SAEs: 0.9%

Source: US20240245711A1, “A 19-NOR C3,3-DISUBSTITUTED C21-N-PYRAZOLYL STEROID FOR THE TREATMENT OF MAJOR DEPRESSIVE DISORDER” (Sage Therapeutics, Inc., priority 2021, published 2024)
